Data on two compounds can be found in patent US20230074252A1, “DOSAGES AND METHODS FOR TREATING PULMONARY ARTERIAL HYPERTENSION WITH RODATRISTAT” (Altavant Sciences GmbH, priority 2020, published 2023).

Where two headings read alike, the source gives them in different places.

The target in data set [1] is CYP2D6 (Homo sapiens, UniProt P10635). Kind of data set: In vitro CYP substrate assessment (victim potential). It counts as in vitro ADME.
In data set [2] the target is T1, OATP1B1 (Homo sapiens, UniProt Q9Y6L6).
T1 construct: expressed in transfected cells; host or cells: HEK293
T1 sequence (Q9Y6L6 1-691): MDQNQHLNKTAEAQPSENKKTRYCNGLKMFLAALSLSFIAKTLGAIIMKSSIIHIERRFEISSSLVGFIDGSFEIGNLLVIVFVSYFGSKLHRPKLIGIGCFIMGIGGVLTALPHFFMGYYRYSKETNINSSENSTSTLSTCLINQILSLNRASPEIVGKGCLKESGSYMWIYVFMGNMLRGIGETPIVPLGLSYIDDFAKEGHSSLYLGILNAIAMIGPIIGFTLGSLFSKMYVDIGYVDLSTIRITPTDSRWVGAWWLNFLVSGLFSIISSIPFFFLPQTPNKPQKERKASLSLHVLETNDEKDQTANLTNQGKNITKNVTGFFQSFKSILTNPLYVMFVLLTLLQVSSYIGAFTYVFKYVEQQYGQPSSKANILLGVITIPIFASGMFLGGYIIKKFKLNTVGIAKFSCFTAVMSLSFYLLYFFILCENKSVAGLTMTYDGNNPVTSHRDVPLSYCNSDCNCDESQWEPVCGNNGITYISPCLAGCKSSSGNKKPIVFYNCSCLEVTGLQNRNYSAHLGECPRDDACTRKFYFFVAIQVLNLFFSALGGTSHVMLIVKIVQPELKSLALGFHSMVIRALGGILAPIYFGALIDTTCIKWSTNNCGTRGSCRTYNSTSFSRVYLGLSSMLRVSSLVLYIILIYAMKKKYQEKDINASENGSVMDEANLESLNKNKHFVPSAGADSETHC
Briefly: Transporter inhibition, HEK293 cells, estradiol-17β-glucuronide probe. It counts as in vitro ADME. The conditions noted are these: for Calculated Values, R-value, OATP1B1 / Potential for interaction? (transporter inhibitor), OATP1B1: predicted @ 600 mg BID; for IC50: read-out: In vitro IC50, OATP1B1. The method, then:
(§1) The competitive inhibition of specific transporters was investigated for RVT-1201 and KAR5417 in transporter-expressing in vitro systems (XT158039). Inhibition of P-gp was evaluated using a Caco-2 cell line with digoxin as probe substrate. Inhibition of OATP1B1 and OATP1B3 was evaluated using a HEK293 cell line expressing these transporters with estradiol-17β-glucuronide as probe substrate. In addition, inhibition of other transporters was also investigated (BCRP, OAT1, OAT3, OCT2, MATE1, MATE2-K). The IC50 estimates for P-gp (RVT-1201) and OATP1B1/3 (RVT-1201 and KAR5417) supported further evaluation of inhibition DDI potential using the PBPK model. For each IC50 estimate, substrate concentration and Km were used to estimate RVT-1201 and KAR5417 Ki with Equation 1 (Cheng and Prusoff, 1973).

Data set [3] has as its target T2, OATP1B3 (Homo sapiens, UniProt Q9NPD5).
T2 construct: expressed in transfected cells; host or cells: HEK293
T2 sequence (Q9NPD5 1-702): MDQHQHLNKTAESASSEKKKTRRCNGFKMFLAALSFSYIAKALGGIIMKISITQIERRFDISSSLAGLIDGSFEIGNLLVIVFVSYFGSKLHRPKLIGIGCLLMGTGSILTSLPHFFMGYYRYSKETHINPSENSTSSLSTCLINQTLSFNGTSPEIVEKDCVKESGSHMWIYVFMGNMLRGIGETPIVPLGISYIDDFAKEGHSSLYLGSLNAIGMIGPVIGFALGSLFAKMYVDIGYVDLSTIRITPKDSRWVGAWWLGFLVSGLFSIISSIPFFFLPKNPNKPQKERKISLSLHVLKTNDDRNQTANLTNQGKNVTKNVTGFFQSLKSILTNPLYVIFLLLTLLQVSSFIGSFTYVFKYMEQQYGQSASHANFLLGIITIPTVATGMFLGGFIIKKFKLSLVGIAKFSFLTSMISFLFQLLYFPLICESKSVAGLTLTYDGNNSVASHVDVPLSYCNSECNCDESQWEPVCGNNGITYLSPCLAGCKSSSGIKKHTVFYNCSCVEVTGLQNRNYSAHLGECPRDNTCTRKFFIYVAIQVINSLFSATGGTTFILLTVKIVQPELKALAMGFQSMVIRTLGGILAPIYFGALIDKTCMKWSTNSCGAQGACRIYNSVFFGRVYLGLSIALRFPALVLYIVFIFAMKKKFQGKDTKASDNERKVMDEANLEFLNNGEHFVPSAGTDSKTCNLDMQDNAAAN
The data set is described as above. It counts as in vitro ADME. The conditions noted are these: for Calculated Values, R-value, OATP1B3 / Potential for interaction? (transporter inhibitor), OATP1B3: predicted @ 600 mg BID; for IC50: read-out: In vitro IC50, OATP1B3. The method, then:
as §1

The target of data set [4] is CYP3A4/5 (Homo sapiens, UniProt P08684). Briefly: Direct and time-dependent CYP inhibition, pooled human liver microsomes. It counts as in vitro ADME. The protocol: “mM^”=millimolar. CYP induction was evaluated using cultured human hepatocytes (from 3 donors) treated once daily for 3 days with RE/R concentrations to […].
The competitive inhibition of specific CYP isoforms was investigated for RVT-1201 and KAR5417 in human liver microsomes (HLM) (XT155056). Of the […] evaluated in vitro (CYP1A2, CYP2B6, CYP2C8, CYP2C9, CYP2D6, CYP3A4, CYP3A5), RVT-1201 IC50 estimates were determined for CYP2B6, CYP2C8 and CYP3A4 only. […] For each IC50 estimate, substrate concentration and Km were used to estimate RVT-1201 and KAR5417 Ki.

Data set [5] concerns CYP3A4. Kind of data set: FDA guidance DDI risk assessment, perpetrator potential. More on the design: species or system human. The conditions noted are these: predicted @ 600 mg BID. The protocol:
The potential for rodatristat ethyl or rodatristat to be perpetrators of drug-drug interactions was assessed across in vitro CYP and transporter studies (Tables 1-4). […] This analysis was performed to assess the potential for clinically meaningful DDIs as recommended in FDA Draft Guidance: “In Vitro Metabolism- and Transporter-Mediated Drug-Drug Interaction Studies Guidance for Industry”; October 2017 (FDA, 2017).
R1 and R3 values using free (non-protein bound) drug levels were calculated based on plasma protein binding (fraction bound, fb) of rodatristat ethyl (0.995) and rodatristat (0.991). The FDA Guidance is set forth In Vitro Metabolism- and Transporter-Mediated Drug-Drug Interaction Studies Guidance for Industry (2017). […] Parameters for the prediction are set forth below in Tables 5 and 6.

Data set [6] deals with CYP isoforms. Kind of data set: Time-dependent CYP inhibition (overall statement). It counts as in vitro ADME, human.
Data set [7] has as its target MRP2 (Homo sapiens, UniProt Q92887). Briefly: Transporter inhibition, in vitro. It counts as in vitro ADME. The conditions noted are these: for Potential for interaction? (transporter inhibitor), MRP2: predicted @ 600 mg BID.
Where [8] appears, read: predicted @ 600 mg BID, testosterone.

CYP3A4/5, sequence (P08684 2-503): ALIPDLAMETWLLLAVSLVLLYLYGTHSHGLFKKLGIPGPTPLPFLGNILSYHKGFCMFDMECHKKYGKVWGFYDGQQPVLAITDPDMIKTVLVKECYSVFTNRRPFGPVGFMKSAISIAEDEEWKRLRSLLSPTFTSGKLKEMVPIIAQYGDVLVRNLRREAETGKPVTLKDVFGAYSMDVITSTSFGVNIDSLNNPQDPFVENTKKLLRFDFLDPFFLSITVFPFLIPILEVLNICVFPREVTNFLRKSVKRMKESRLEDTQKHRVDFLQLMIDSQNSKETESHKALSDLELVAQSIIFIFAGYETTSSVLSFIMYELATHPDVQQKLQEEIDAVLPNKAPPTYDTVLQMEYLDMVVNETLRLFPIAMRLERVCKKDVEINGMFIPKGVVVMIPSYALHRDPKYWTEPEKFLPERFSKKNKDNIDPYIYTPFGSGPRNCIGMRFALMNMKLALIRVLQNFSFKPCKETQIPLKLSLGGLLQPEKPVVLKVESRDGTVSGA
MRP2, sequence (Q92887 whole entry): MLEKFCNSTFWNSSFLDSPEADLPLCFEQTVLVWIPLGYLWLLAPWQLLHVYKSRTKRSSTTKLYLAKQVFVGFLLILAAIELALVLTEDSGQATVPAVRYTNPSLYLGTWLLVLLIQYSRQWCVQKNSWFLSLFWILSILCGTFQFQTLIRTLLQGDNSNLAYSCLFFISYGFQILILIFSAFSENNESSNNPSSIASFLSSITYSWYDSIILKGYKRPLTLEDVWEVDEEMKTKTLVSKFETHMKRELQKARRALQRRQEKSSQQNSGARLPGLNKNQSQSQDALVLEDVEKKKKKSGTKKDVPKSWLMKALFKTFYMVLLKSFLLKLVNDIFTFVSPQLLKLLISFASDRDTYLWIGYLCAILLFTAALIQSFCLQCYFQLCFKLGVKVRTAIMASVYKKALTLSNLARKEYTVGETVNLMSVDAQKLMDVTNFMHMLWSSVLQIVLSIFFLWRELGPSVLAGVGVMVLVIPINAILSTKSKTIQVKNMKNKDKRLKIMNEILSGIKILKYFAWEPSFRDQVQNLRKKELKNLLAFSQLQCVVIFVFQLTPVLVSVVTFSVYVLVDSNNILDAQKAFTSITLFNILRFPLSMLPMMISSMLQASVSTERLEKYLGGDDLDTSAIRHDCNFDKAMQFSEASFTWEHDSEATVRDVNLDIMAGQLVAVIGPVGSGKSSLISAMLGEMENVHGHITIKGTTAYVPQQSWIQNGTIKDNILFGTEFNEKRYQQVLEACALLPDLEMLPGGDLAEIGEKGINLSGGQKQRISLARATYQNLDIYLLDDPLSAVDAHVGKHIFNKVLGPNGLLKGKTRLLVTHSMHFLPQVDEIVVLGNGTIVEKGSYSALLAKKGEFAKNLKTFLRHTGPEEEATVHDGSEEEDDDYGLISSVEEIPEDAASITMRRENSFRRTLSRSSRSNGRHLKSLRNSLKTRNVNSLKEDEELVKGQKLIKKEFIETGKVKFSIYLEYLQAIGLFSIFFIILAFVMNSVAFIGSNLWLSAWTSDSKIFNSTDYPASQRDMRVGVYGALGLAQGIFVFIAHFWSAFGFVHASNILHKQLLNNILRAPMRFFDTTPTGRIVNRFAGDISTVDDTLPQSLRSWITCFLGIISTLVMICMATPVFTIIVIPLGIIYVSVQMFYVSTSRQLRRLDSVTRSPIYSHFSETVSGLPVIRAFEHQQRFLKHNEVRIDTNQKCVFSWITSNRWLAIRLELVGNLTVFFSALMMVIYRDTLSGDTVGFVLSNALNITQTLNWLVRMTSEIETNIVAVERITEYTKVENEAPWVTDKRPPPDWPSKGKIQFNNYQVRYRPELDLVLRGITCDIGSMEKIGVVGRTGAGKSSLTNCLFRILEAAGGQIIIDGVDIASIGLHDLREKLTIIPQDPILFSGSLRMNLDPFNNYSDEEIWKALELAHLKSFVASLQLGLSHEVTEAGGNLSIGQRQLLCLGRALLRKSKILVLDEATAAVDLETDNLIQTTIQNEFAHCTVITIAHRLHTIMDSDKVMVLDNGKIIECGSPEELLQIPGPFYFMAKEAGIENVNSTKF
CYP2D6, sequence (P10635 whole entry): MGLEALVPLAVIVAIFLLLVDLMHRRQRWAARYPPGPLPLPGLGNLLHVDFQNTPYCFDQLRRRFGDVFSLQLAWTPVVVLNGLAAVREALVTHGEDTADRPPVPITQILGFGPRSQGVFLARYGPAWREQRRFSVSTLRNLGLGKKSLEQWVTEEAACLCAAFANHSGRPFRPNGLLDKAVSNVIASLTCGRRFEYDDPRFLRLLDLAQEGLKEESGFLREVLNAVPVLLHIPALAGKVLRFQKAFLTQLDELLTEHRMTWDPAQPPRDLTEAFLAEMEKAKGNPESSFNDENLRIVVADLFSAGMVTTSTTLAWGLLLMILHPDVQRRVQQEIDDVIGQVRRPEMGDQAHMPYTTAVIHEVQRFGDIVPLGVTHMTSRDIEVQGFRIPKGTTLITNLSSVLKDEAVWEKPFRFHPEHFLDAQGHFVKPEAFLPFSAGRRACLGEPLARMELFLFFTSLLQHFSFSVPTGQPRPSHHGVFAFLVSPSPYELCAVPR

With `CCOC(=O)[C@@H]1CC2(CCN(c3cc(O[C@H](c4ccc(Cl)cc4-c4ccccc4)C(F)(F)F)nc(N)n3)CC2)CN1` [Rodatristat ethyl, (S)-ethyl 8-(2-amino-6-((R)-1-(5-chloro-[1,1′-biphenyl]-2-yl)-2,2,2-trifluoroethoxy)pyrimidin-4-yl)-2,8-diazaspiro[4.5]decane-3-carboxylate], in data set [1], the “In vitro substrate? CYP2D6” value is listed as “No”. For the same compound, in data set [2], the “Calculated Values, R-value, OATP1B1” value is listed as <1.1; the “Potential for interaction? (transporter inhibitor), OATP1B1” value is reported as “No”; the IC50 was 25.4 µM. Besides, in data set [3], the “Calculated Values, R-value, OATP1B3” value is <1.1; the “Potential for interaction? (transporter inhibitor), OATP1B3” value is reported as “No”; the IC50 turned out to be 12.3 µM. Besides, the “Calculated Values, R-value, OATP1B3” value in data set [3] (listed as rodatristat ethyl) is given as < 1.1. Further, in data set [4] (human, pooled human liver microsomes, probe midazolam (1′ hydroxylation), midazolam 1′ hydroxylation, read-out: In vitro IC50, direct inhibition, CYP3A4), the IC50 amounted to 13 µM. For the same compound, in data set [4] (human, pooled human liver microsomes, probe testosterone (6β hydroxylation), testosterone 6β hydroxylation, read-out: In vitro IC50, direct inhibition, CYP3A4 (T)), the IC50 came out at 23 µM. For the same compound, in data set [4] (setting [8]), the “Calculated R1 Value, CYP3A4 (T)” value is recorded as <1.02 and the “R1gut, CYP3A4 (T)” value was “R1gut = 355”. In addition, the “Potential for interaction (perpetrator), CYP3A4” value in data set [5] is “Yes”. Further, the “Time-dependent inhibition of CYP isoforms” value in data set [6] is “not time-dependent CYP inhibitors”. Also, in data set [7], the “Potential for interaction? (transporter inhibitor), MRP2” value is listed as “No”.

`Nc1nc(O[C@H](c2ccc(Cl)cc2-c2ccccc2)C(F)(F)F)cc(N2CCC3(CC2)CN[C@H](C(=O)O)C3)n1` [Rodatristat, (S)-8-(2-amino-6-((R)-1-(5-chloro-[1,1′-biphenyl]-2-yl)-2,2,2-trifluoroeth-oxy)pyrimidin-4-yl)-2,8-diazaspiro[4.5]decane-3-carboxylic acid]: in data set [1], the “In vitro substrate? CYP2D6” value is given as “No”. Further, in data set [2], the “Calculated Values, R-value, OATP1B1” value is reported as <1.1; the “Potential for interaction? (transporter inhibitor), OATP1B1” value is on record as “No”; the IC50 was determined as 5.74 µM. In addition, in data set [3], the “Calculated Values, R-value, OATP1B3” value is on record as 1.26; the “Potential for interaction? (transporter inhibitor), OATP1B3” value is “Yes”; the IC50 amounted to 1.93 µM. Also, in data set [4] (human, pooled human liver microsomes, 30 μM, range given across CYPs 2B6, 2C9 and 3A4/5), the inhibition (in general, the relative decrease from the control value, in per cent) at 30 µM lay within 27 to 45%. Besides, in data set [4] (human, pooled human liver microsomes, probe substrate not stated, read-out: IC50, CYP3A4/5), the IC50 was > 30 µM. Besides, in data set [5], the “Potential for interaction (perpetrator), CYP3A4” value was “Yes”. The “Time-dependent inhibition of CYP isoforms” value in data set [6] (listed as rodatristat) is listed as “not time-dependent CYP inhibitors”. This compound had an inhibition at 30 µM in data set [7] (nominal 30 μM) of 25%. In data set [7], the “Potential for interaction? (transporter inhibitor), MRP2” value was “No^a”.
